In US10149860B2, “Compositions and methods for treating alzheimer's disease and other tauopathies” (Board of Trustees Of The Leland Stanford Junior University, priority 2013, dated 2018):

Experiments:
FAF = target: T1, FAF (Drosophila melanogaster, UniProt P55824); experiment: Drosophila larval NMJ bouton number after feeding WP1130 in fly food; format: in vivo
T1 construct: Mhc-Gal4>PAR-1 and control Mhc-Gal4/+ animals were fed with fly food containing WP1130 or DMSO alone; endogenous in cells; host or cells: Drosophila third instar larvae (body-wall muscle / NMJ)
T1 sequence (P55824 whole entry, the tested form may be a part): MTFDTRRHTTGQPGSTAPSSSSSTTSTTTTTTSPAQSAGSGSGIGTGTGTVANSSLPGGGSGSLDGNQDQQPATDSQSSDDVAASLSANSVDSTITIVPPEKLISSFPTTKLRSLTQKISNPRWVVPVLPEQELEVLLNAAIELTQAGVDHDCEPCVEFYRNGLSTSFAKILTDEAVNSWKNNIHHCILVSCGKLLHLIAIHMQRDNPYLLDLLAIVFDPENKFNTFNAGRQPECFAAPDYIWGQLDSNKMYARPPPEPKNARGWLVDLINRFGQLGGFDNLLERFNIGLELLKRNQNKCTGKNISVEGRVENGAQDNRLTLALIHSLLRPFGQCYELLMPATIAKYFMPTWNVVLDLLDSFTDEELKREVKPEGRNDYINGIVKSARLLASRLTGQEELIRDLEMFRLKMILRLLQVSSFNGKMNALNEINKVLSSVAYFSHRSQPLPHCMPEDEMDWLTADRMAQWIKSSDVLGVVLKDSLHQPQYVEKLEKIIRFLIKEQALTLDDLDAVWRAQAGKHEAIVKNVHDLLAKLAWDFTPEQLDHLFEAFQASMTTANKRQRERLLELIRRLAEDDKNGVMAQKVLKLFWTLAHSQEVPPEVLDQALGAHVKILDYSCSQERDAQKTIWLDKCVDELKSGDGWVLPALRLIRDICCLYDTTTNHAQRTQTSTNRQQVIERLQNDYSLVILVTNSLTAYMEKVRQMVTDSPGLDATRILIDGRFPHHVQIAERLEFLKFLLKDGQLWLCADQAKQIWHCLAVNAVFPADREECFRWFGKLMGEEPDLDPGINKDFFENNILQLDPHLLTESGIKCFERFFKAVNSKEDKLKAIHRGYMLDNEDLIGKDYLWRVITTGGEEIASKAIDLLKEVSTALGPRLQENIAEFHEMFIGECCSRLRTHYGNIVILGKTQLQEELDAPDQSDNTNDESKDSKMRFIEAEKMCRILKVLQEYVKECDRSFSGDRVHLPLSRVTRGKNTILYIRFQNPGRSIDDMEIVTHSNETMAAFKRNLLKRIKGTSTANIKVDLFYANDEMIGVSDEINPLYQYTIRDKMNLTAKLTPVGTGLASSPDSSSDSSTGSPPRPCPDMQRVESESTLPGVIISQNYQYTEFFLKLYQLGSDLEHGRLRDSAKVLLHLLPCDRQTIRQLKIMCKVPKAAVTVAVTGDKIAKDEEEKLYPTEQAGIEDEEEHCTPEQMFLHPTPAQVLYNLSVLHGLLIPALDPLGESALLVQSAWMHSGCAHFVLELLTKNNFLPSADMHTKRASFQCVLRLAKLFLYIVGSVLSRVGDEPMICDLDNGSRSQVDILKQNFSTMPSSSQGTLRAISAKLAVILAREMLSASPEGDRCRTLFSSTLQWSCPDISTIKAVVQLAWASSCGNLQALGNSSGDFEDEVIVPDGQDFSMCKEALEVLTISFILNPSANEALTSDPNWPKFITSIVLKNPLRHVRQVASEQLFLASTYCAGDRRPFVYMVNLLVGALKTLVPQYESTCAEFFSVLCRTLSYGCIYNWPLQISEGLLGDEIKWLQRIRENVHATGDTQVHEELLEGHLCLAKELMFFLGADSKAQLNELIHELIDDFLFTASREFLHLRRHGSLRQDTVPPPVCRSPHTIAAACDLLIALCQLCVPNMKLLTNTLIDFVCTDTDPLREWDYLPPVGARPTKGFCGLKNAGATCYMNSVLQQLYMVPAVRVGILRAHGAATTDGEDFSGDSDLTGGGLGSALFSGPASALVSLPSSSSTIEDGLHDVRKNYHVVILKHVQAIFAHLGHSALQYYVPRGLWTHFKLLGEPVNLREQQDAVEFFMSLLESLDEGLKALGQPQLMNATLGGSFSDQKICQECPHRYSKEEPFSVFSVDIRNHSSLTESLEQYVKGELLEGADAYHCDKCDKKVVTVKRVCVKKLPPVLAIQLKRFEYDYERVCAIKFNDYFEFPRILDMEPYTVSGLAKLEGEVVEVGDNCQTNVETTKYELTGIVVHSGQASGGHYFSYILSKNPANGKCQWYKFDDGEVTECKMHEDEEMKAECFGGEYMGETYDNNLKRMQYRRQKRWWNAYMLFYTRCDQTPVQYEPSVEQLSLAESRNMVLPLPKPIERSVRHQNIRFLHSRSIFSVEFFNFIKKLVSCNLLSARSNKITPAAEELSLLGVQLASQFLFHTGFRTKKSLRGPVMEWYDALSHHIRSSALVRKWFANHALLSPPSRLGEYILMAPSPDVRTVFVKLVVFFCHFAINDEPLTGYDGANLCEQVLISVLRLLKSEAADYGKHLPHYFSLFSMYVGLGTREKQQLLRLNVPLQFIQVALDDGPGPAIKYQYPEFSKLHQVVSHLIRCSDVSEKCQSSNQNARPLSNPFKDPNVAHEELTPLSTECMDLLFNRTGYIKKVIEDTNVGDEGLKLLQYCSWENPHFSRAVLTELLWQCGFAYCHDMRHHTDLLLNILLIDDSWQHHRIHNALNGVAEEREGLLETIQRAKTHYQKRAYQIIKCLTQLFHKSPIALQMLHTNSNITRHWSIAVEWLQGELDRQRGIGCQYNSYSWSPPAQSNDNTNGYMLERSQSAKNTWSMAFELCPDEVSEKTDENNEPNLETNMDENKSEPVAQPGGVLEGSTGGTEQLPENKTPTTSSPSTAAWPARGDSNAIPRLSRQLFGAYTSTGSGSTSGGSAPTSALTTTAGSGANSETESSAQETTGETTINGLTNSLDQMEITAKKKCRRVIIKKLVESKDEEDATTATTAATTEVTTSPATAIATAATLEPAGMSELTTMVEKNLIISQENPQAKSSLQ
Experimental: For immunohistochemistry, third instar lavae were selected, dissected in PBS, fixed in 4% formaldehyde (Ted Pella) in PBS for about 15 minutes and washed 3× in 0.1% Triton X-100 in PBS. The primary antibodies used were: anti-PAR-1 (1:10,000), anti-phospho-PAR-1 (1:1,000); anti-Slimb (1:1,000); anti-Dlg (4F3) (1:50, Hybridoma bank, University of Iowa); anti-GFP (1:8,000, Abcam); anti-dtau (1:3). Primary antibody incubation was performed at 4° C. overnight. All secondary antibodies (Molecular Probes) and Texas Red or FITC-conjugated anti-HRP (Jackson ImmunoResearch Laboratories) were used at 1:200 and incubated for about 2 hours at room temperature. Laval preparations were mounted in SlowFade Antifade kit (Invitrogen). Confocal images were collected from Leica confocal microscopes SP2 and SP5 equipped with 40× or 100× inverted NX oil lens. Leica Application Suite Advanced Fluorescence software was used to capture, process and analyze images. Analysis of the NMJ was performed essentially as described^51. All crosses for genetic interaction studies in the NMJ were performed at 25° C.
(§1) Either WP1130 (Selleck Chemicals) or DMSO (Sigma) was added to fly food at 2, 5 or 10 μM concentrations. Feeding third instar larvae were collected from the drug-containing food and dissected in PBS. Besides Mhc-GAL4>UAS-APP, which were raised at 29° C., all flies were raised at 25° C.
Fly eye sizes were measured on multiple samples (n>15) from both control and experimental genotypes using the NIH ImageJ software. Average eye size was presented as a normalized percentage of control eye size. We performed two-tailed unpaired Student's t-test to analyze the significance of differences between two groups. Quantification of NMJ bouton number was performed according to previously described protocols (Lee et al., 2010). NMJ bouton number is normalized by muscle area at muscle 6/7 in abdominal segment A3. The experimental genotypes were normalized relative to the control genotype.
To investigate whether WP1130 may act as an inhibitor of FAF to control PAR-1 activity in vivo, Mhc-Gal4>PAR-1 and control Mhc-Gal4/+ animals were fed with fly food containing WP1130 or DMSO alone. […] Given the potent effect of WP1130 in modulating PAR-1 protein level, whether WP1130 would affect the phosphorylation of tau was tested.
(a) Quantification of the pharmacological effect of WP1130 on the total number of boutons on muscle 6/7 of A3, after normalization with bouton area. Indicated genotype flies were incubated with 0, 2, 5 or 10 μM concentrations of WP1130. (b) Western blot analyses showing the effects of WP1130 (10 μM) on PAR-1-Myc levels in third instar larvae body-wall muscle extracts. Values represent normalized PAR-1-Myc levels. Actin serves as loading control. (c) Quantification of NMJ bouton number showing rescue by WP1130 (10 μM) of the bouton-loss phenotypes induced by Mhc-Gal4>UAS-htauM or Mhc-Gal4>UAS-htauM+UAS-PAR-1. (d) Western blot analysis showing reduced 12E8-positive htauM level by WP1130 (10 μM). Values represent normalized 12E8-positive htauM levels. Actin serves as loading control. (e) Quantification of NMJ bouton number showing rescue by WP1130 (10 μM) of the bouton-loss phenotypes induced the expression APP/Aβ-42. (f) A model depicting possible signaling pathways linking APP/Aβ-42 to synaptic dysfunction and synapse loss seen in AD. Dashed lines indicate potential direct regulations.

PAR-1 = experiment: Western blot of PAR-1-Myc levels in third instar larvae body-wall muscle extracts; format: in vivo, Drosophila; settings: Mhc-Gal4>PAR-1 larvae; WP1130 10 μM vs DMSO; FIG. 26b
Experimental: (§2) For Western blot analysis, the primary antibodies used were: anti-PAR-1 (1:8,000), anti-phospho-PAR-1 (1:1,000); anti-HA (1:2,000, Sigma); anti-Myc (1:1,000, Millipore); anti-GFP (1:2,000, Abcam); anti-Dlg (4F3) (1:1,000, Hybridoma bank, University of Iowa); 12E8 (1:8,000); anti-Actin (1:40,000, Sigma); anti-Gapdh (1:3,000, Abcam).
as §1
(§3) To investigate whether WP1130 may act as an inhibitor of FAF to control PAR-1 activity in vivo, Mhc-Gal4>PAR-1 and control Mhc-Gal4/+ animals were fed with fly food containing WP1130 or DMSO alone. […]
(§4) (a) Quantification of the pharmacological effect of WP1130 on the total number of boutons on muscle 6/7 of A3, after normalization with bouton area. […] (c) Quantification of NMJ bouton number showing rescue by WP1130 (10 μM) of the bouton-loss phenotypes induced by Mhc-Gal4>UAS-htauM or Mhc-Gal4>UAS-htauM+UAS-PAR-1. […] (e) Quantification of NMJ bouton number showing rescue by WP1130 (10 μM) of the bouton-loss phenotypes induced the expression APP/Aβ-42. […]

[1] = test system: htau phosphorylation at 12E8 sites; experiment: Western blot of 12E8-positive htauM level in WP1130-fed flies; format: in vivo, Drosophila; settings: WP1130 10 μM vs DMSO; FIG. 26d
Experimental: as §2, §1, §3, §4

MARK4 [2] = experiment: Western blot of MARK4 stability in HEK 293T cells transfected with hMARK4-HA; format: cell-based, human; settings: HEK 293T cells with hMARK4-HA; 5 μM WP1130 for 8 h; FIG. 25a
Experimental: (§5) HEK 293T cells transfected with the hMARK4-HA plasmids were treated with 5 μM WP1130 for 8 h and subsequently used for western blot analysis. Actin serves as loading control. […] Cultured HEK 293T cells were treated with 0, 2, 5 and 10 μM WP1130 for 12 h, and used for western blot analysis. Actin serves as loading control.

[3] = test system: endogenous tau phosphorylation at the MARK sites; experiment: Western blot of endogenous tau phosphorylation (12E8 antibody) in HEK 293T cells; format: cell-based, human; settings: 0, 2, 5 and 10 μM WP1130 for 12 h, FIG. 25b
Experimental: as §5

MARK4 [4] = experiment: Western blot of MARK4 in brain extracts of PS19 tauopathy mice after ICV infusion; format: in vivo; settings: relative to vehicle controls, FIG. 27
Experimental: (§6) To test the effects of WP1130 in a mammalian model of AD, the drug was administered to Tauopathy mice (PS19) expressing the pathogenic P301S human tau transgene. Mice received intracerebroventricular (ICV) infusion of either WP1130 or vehicle controls and MARK4 and p-Tau levels were assessed by western blot. […] Tauopathy mice (PS19) expressing the pathogenic P301S human tau transgene were treated with vehicle (#1, 2, 4, 6, 12) or WP1130 (#5, 8, 13, 14, 15) by intracerebroventricular (ICV) infusion, and brain extracts were subjected to Western blot analysis with the indicated antibodies. Actin serves as a loading control, and T14 anti-Tau antibody measures levels of total tau. Note the reduction of MARK4 and p-Tau (S262) protein levels by drug treatment.

[5] = test system: tau phosphorylation at the PAR-1/MARK target site (S262); experiment: Western blot of p-Tau (S262) in brain extracts of PS19 tauopathy mice after ICV infusion; format: in vivo; settings: relative to vehicle controls, FIG. 27
Experimental: as §6

PS19 mice = experiment: Passive avoidance test in PS19 tauopathy mice; format: in vivo; settings: WP1130-treated PS19 mice vs wt and vehicle treated PS19 mice; FIG. 28
Experimental: The passive avoidance test was used to test whether WP1130 could rescue the learning and memory deficits expressed in the PS19 mice. During training, the animals were subjected to electric shock on the foot in the dark chamber. During testing, the trained animals were placed in the light chamber and the time it took the animals to enter the dark chamber (latency time) was recorded. […] (Top) A diagram showing the passive-avoidance test, in which animals were allow to freely moving between the light and dark chambers during habituation. During training, the animals were subjected to electric shock on the foot in the dark chamber. During testing, the trained animals were placed in the light chamber and the time it took the animals to enter the dark chamber (latency time) was recorded. (Bottom) Statistical analysis of the latency times of vehicle-treated WT control, vehicle-treated PS19 tauopathy mice, and drug-treated PS19 tauopathy during the habituation, training, and testing periods. ** indicates P<0.01 in Student's t-test.

bouton-loss phenotype caused by the co-expression of PAR-1 and htauM (FAF; Mhc-Gal4>UAS-htauM+UAS-PAR-1, WP1130 10 μM vs DMSO, FIG. 26c): partially suppressed
synaptic-loss phenotype caused by postsynaptic co-expression of FAF and Slimb-ΔF (FAF; WP1130 in fly food vs DMSO, FIG. 26a): blocked synaptic-loss phenotype
bouton-loss phenotype induced by Mhc-Gal4>UAS-htauM (FAF; htauM alone, WP1130 10 μM, FIG. 26c): rescue
SMILES: CCC[C@H](NC(=O)/C(C#N)=C/c1cccc(Br)n1)c1ccccc1 [WP1130, (S,E)-3-(6-bromopyridin-2-yl)-2-cyano-N-(1-phenylbutyl)acrylamide]
loss of NMJ bouton number caused by overexpression of PAR-1 (FAF; Mhc-Gal4>PAR-1 larvae, WP1130 in fly food at 0, 2, 5 or 10 μM vs DMSO, FIG. 26a): highly effective in preventing the loss of NMJ bouton number
bouton-loss phenotype caused by the postsynaptic toxicity of APP/Aβ-42 (FAF; WP1130 10 μM, FIG. 26e): effectively suppressed
PAR-1 protein level (PAR-1): reducing PAR-1 protein level
htau phosphorylation at 12E8 sites [1]: dramatically decreased
stability of MARK4 (MARK4 [2]): decreases the stability of MARK4
endogenous tau phosphorylation at the MARK sites (12E8 antibody) [3]: decreased endogenous tau phosphorylation
MARK4 level (MARK4 [4]): significantly reduced
phosphorylated tau level [5]: significantly reduced
latency time to enter the dark chamber (PS19 mice): latency times comparable to that of wt
